From US20110257225A1, “CYCLOHEXYLAMINE DERIVATIVE CONTAINING PHENYL GROUP, AND THERAPEUTIC AGENT FOR DISEASES ACCOMPANIED BY CENTRAL NERVOUS SYSTEM DISORDERS” (M'S Science Corporation, priority 2008, published 2011)

Tests used:
[1] = molecular target: T1, sigma receptor (Cavia porcellus, UniProt Q60492); experiment: Evaluation of affinity to sigma receptors ([3H](+)-pentazocine receptor binding, whole-brain membrane preparation); set-up: species or system guinea pig; details: for Ki: Ki from Dixon plot; for inhibition at 1 µM: compound concentration 1 × 10^−6 mol/L; for inhibition at 1 µM / inhibition at 0.1 µM / inhibition at 0.01 µM / inhibition at 0.001 µM / inhibition at 0.0001 µM / inhibition at 10 pM: [3H](+)-pentazocine, 25° C., 60 minutes, read-out: Inhibition rate (%); for inhibition at 0.1 µM: compound concentration 1 × 10^−7 mol/L; for inhibition at 0.01 µM: compound concentration 1 × 10^−8 mol/L; for inhibition at 0.001 µM: compound concentration 1 × 10^−9 mol/L; for inhibition at 0.0001 µM: compound concentration 1 × 10^−10 mol/L; for inhibition at 10 pM: compound concentration 1 × 10^−11 mol/L; for IC50: from logit-log regression of the dose-response curve
T1 construct: A membrane preparation as a sigma receptor obtained from the whole brain of guinea pigs; from tissue; host or cells: guinea pig whole brain membrane preparation
Method: The following measurement of radioactivity was performed according to a usual method after the binding reaction had been carried out at 25° C. for 60 minutes.
The inhibition rate was determined by the equation of “100−binding rate”. The binding rate is represented by the following equation:
The IC50 of the test substance was calculated from a regression equation to the dose-response curve. That is to say, the ratio y=(B−N)/(B0−N) wherein a value of (B−N) is a specific binding radioactivity in the presence of a test substance, and a value of (B0−N) is a specific binding radioactivity in the absence of a test substance was first subjected to logit conversion and applied to a logit-log model plotted against the common logarithm of the test substance concentration to create a dose-response curve. […] The regression equation to the dose-response curve used is as follows: […]
Then, for each concentration of the positive substances, the reaction rate was measured while changing the concentration of the test substance in a range including the IC50 to create the Dixon plot, and the Ki value was calculated from the test substance concentration giving an intersection of these straight lines.

[2] = system: rat cerebral cortex neural cells; experiment: Evaluation of neurite outgrowth-promoting activity in central neural cells; assay type: cell-based; details: cultured for 48 hours
[3] = system: rat cerebral cortex neural cells; experiment: as above; assay type: cell-based; details: 48 hours after addition, mean±standard error, control 18.0 ± 1.6
Method: The neurite outgrowth-promoting effects of the rat cerebral cortex neural cells on test substances were evaluated by the following method. The cerebral cortex neural cells were isolated from Wistar rats on the 18th day of pregnancy according to the method of Springer Neuroscience Lab Manual. That is to say, under ether anesthesia, a fetal rat was removed from the uterus of a pregnant rat on day 18, and transferred into a petri dish containing HBSS (manufactured by Gibco, Inc.) on ice. The cerebral cortex was cut out under a stereoscopic microscope. The cerebral cortex that had been cut out was dispersed with a neural cells dispersion solution (manufactured by Sumitomo Bakelite Co., Ltd.) to prepare rat cerebral cortex cells.
The resulting cerebral cortex cells were subjected to cell culture. Neurobasal medium (manufactured by Gibco, Inc.) supplemented with B27 Supplement (manufactured by Gibco, Inc.; Fin. 2% v/v), L-glutamine (manufactured by IBCO company; Fin. 0.5 mM) and GlutaMax I (manufactured by Gibco, Inc.; Fin. 0.5 mM) was used as the culture medium. The culture conditions were as follows: 5% CO2, 95% air, 100% humidity, and 37° C. The cells were inoculated to polylysine-coated 8-well slides (manufactured by IWAKI company) so as to have about 2×10^4 cells/well.
Compound [2], compound [3], compound [4], compound [5], compound [6], compound [7], compound [8], compound [9], compound [10], compound [11], and compound [12] (final•concentrations: 0.3 μM and 1.0 μM) were added as respective test substances to the culture solution at about 3 hours after the cell inoculation, and the culture solution with no additives was used as a control.
At 48 hours after the addition of the compounds, the cells were fixed by treatment with 4% paraformaldehyde (manufactured by Wako Pure Chemical Industries) at room temperature for about 30 minutes, and incubated with an anti-α-Tublin antibody (Anti-α-Tubulin Alexa Fluor 488 conjugate) recognizing a microtubule protein, at room temperature for one hour. After washing, the nucleus of the whole cell was stained with a nucleic acid-staining agent DAPI. The cells were observed under a fluorescence microscope at a magnification of 20 times. The stained cell image and the nuclear staining image in the same field of vision were imported into a computer as the image. Using an image analysis software (MethaMorph (registered trademark), Molecular Devises), the image imported into the computer was used to measure the “longest neurite length” that was the length of the longest neurite of individual cell in each field of vision. A cell having a length of the “longest neurite length” of 60 μm or more was defined as a “neurite forming cell” and the neurite forming activity was evaluated by the ratio of the “neurite forming cell” occupied in the number of the cells in the same field of vision. In other words, evaluation was performed by determining the rate of the neurite forming cells using the following equation:
Rate of neurite forming cells=[Number of neurite forming cells/Number of total cells in the same field of vision]×100

T1 sequence (Q60492 whole entry): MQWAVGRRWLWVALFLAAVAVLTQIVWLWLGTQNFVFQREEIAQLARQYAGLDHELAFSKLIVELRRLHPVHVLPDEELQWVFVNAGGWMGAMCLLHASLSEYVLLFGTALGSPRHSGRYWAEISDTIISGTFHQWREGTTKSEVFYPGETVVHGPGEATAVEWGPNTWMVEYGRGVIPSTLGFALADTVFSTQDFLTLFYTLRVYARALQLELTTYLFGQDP

Ki [1]	inhibition at 1 µM [1]	inhibition at 0.1 µM [1]	inhibition at 0.01 µM [1]	inhibition at 0.001 µM [1]	inhibition at 0.0001 µM [1]	inhibition at 10 pM [1]	IC50 [1]	Compound	ratio of cells extending dendrites compared with no additives (FIG. 1) ([2]; final concentration 1 μM)	ratio of cells having neurites having the length two or more times the cell body diameter (FIG. 2) ([2]; final concentrations 0.1 μM, 1 μM, 10 μM)	Neurite outgrowth-promoting activity (%) (rate of neurite forming cells, longest neurite 60 μm or more) ([3]; 0.3 μM)	Neurite outgrowth-promoting activity (%) (rate of neurite forming cells, longest neurite 60 μm or more) ([3]; 1.0 μM)
1 nM								CCN(CCSc1ccccc1)C1CCCCC1 [Compound [2], N-(2-(phenylthio)ethyl)-N-ethylcyclohexylamine]	obviously higher than that of the case of no additives	significantly increased	37.4 ± 3.5%	50.6 ± 1.4%
1.6 nM	99.9%	100%	90.4%	46.8%	6.31%	2.84%	1.2 nM	c1ccc(SCCN2CCCC3CCCCC32)cc1 (stereo not shown) [Compound [3], N-(2-phenylthio)ethyldecahydroquinoline]			32.8 ± 5.3%	52.6 ± 1.2%
0.8 nM	100%	100%	99.7%	95.2%	23.5%	10.4%	0.189 nM	CCN(CCSc1cccc(C(F)(F)F)c1)C1CCCCC1 [Compound [4], N-[2-(3-trifluoromethyl)phenylthio]ethyl-N-ethylcyclohexylamine]			21.4 ± 2.2%	39.4 ± 2.5%
	97.5%	99.2%	98.6%	92.8%	20.8%	1.25%	0.222 nM	CCN(CCSc1cccc(C(F)F)c1)C1CCCCC1 [Compound [5], N-[2-(3-difluoromethyl)phenylthio]ethyl-N-ethylcyclohexylamine]			41.6 ± 3.3%	50.8 ± 2.8%
3.7 nM	99.9%	99.1%	98.1%	86.6%	19.9%	1.75%	0.268 nM	CCN(CCSc1ccc(OC)c(OC)c1)C1CCCCC1 [Compound [6], N-[2-(3,4-dimethoxy)phenylthio]ethyl-N-ethylcyclohexylamine]				40.3 ± 3.4%
0.8 nM	97.3%	96.3%	90%	44.5%	3.43%	0%	1.23 nM	CCN(CCSc1ccc(F)cc1)C1CCCCC1 [Compound [7], N-[2-(4-fluorophenylthio)ethyl]-N-ethylcyclohexylamine]			30.2 ± 2.5%	53.3 ± 1.4%
8.7 nM								CCN(CCCc1ccccc1)C1CCCCC1 [Compound [8], N-(3-phenylpropyl)-N-ethylcyclohexylamine]			59.9 ± 1.8%	61.7 ± 2.0%
10.5 nM								CCN(CCCc1ccc(OC)cc1)C1CCCCC1 [Compound [9], N-[3-(4-methoxyphenyl)propyl]-N-ethylcyclohexylamine]			31.4 ± 5.8%	59.6 ± 1.0%
8.5 nM								CCN(CCCc1ccc(F)cc1)C1CCCCC1 [Compound [10], N-[3-(4-fluorophenyl)propyl]-N-ethylcyclohexylamine]			26.8 ± 1.1%	57.0 ± 3.0%
								COc1ccc(CCN2CCN(CCCc3ccccc3)CC2)cc1OC [Reference compound, SA4503, reference compound]			44.6 ± 2.2%	58.4 ± 1.8%

Compound	Ki [1]	inhibition at 1 µM [1]	inhibition at 0.1 µM [1]	inhibition at 0.01 µM [1]	inhibition at 0.001 µM [1]	inhibition at 0.0001 µM [1]	inhibition at 10 pM [1]	IC50 [1]	ratio of cells extending dendrites compared with no additives (FIG. 1) ([2]; final concentration 1 μM)	ratio of cells having neurites having the length two or more times the cell body diameter (FIG. 2) ([2]; final concentrations 0.1 μM, 1 μM, 10 μM)	Neurite outgrowth-promoting activity (%) (rate of neurite forming cells, longest neurite 60 μm or more) ([3]; 0.3 μM)	Neurite outgrowth-promoting activity (%) (rate of neurite forming cells, longest neurite 60 μm or more) ([3]; 1.0 μM)
CCN(CCOc1ccc(F)cc1)C1CCCCC1 [Compound [11], N-ethyl-N-[2-(4-fluorophenoxy)ethyl]cyclohexylamine]	2.4 nM										43.5 ± 2.4%	50.7 ± 2.2%
CCN(CCOc1ccccc1)C1CCCCC1 [Compound [12], N-ethyl-N-(2-phenoxyethyl)cyclohexylamine]	6.6 nM										44.2 ± 1.4%	32.2 ± 1.0%
